Literature values, collected in US6890568B2, “Method for management of blood glucose levels” (priority 1999, dated 2005).

Test system: insulin-deficient, streptozotocin-induced rat model of diabetes
Conditions: vanadate in the drinking water

## [O]=[V]([O-])([O-])[O-] [vanadate]
  control of diabetes: shown to control diabetes
  side effects: life-threatening diarrhea
